The values below come from PMC5487681, “Identification of Antifungal H^+-ATPase Inhibitors with Effect on Plasma Membrane Potential” (Antimicrobial Agents and Chemotherapy, 2017).

Molecules are shown by their SMILES. Read-outs that look alike come from different tables or passages of the source. Residues, ends and D or L forms follow the SMILES beside them.

Assay [1] concerns Candida spp. Nature of the assay: Fungal growth inhibition, Candida spp. (text summary of Table 1). It counts as cell-based. Conditions: 38 μM highest concentration tested for compounds 4 and 8, read-out: MIC for several of the Candida spp. tested. The method, then:
The following fungal isolates were used: Saccharomyces cerevisiae ATCC 9763, Candida albicans SC5314, Candida parapsilosis ATCC 22019, Candida tropicalis Ct016, Candida glabrata ATCC 90030, Aspergillus fumigatus ATCC 13073, and Aspergillus flavus ATCC MYA-1005. Frozen stocks of yeast isolates in glycerol (final concentration, 20%) were prepared by growing the cells to log phase in YPD medium at 30°C and 150 rpm. Frozen stocks of mold spores were prepared by harvesting spores from 7-day-old potato glucose agar plates in phosphate-buffered saline, 0.1% Tween 80 and aliquoting these spores in the presence of glycerol (final concentration, 20%). The cells were stored at −80°C. The cells or spores were thawed and diluted to a final concentration of 0.5 × 10^5 to 2.5 × 10^5 CFU/ml in sterile Milli-Q H2O. […] The plate was incubated for 20 to 24 h at 34°C (72 h for molds), and the OD490 was measured on a Victor X5 (PerkinElmer) plate reader. Mold growth assay plates were also visually inspected. The MIC was defined as the lowest concentration inhibiting the visual growth of the microorganism. Standard errors were typically below 5%.

The target in assay [2] is T1, C. albicans Pma1 (Candida albicans, UniProt P28877).
T1 construct: endogenous in cells
Nature of the assay: ATP hydrolysis assay, C. albicans Pma1. It counts as biochemical. The method, then:
A 100-ml overnight culture in YPD medium [10 g/liter yeast extract (BD, Sparks, MD), 20 g/liter Bacto peptone (BD), 20 g/liter D-(+)-glucose] was transferred to 1 liter YPD medium and grown at room temperature and 150 rpm for 18 h for wild-type S. cerevisiae (ATCC 9763) and 7 h for C. albicans. The cells were harvested and washed in Milli-Q H2O by centrifugation at 3,360 × g. The cells were glucose activated by the addition of 10% D-(+)-glucose for 10 min while shaking. The cells were then centrifuged at 3,360 × g for 3 min and frozen. Cells (60 to 80 g, wet weight) were then disrupted by bead beating (BioSpec, Bartlesville, OK) and processed as described in reference to prepare the plasma membranes. […] All batches were validated by ATPase hydrolysis activity, pH optimum, and orthovanadate sensitivity.
The protein activity levels were determined by measuring the amount of free phosphate produced from the ATP hydrolysis reaction. The assay was performed as described in reference. Each well contained ATPase enzyme, 2 μl of inhibitor (usually in the range of 333 to 0.01 μM) dissolved in dimethyl sulfoxide (DMSO) (Duchefa Biochemie, Haarlem, The Netherlands), and an assay buffer dependent on the enzyme for a final volume of 60 μl. Possible compound precipitation in the assay buffer was monitored using a Nephelostar plate reader measuring turbidity, and the information was taken into account in the IC50 determination. Pma1 assay buffer consisted of 20 mM 3-(N-morpholino)propanesulfonic acid (MOPS)–NaOH, pH 6.5 or 7.0, 8 mM MgSO4, 50 mM KNO3 (a vacuolar ATPase inhibitor), 25 mM sodium azide (a mitochondrial ATPase inhibitor), and 250 μM sodium molybdate (an acid phosphatase inhibitor). SERCA buffer consisted of 9 mM MOPS-NaOH, pH 7, 2.7 mM MgCl2, 90 μM CaCl2, and 72 mM KCl. Na^+,K^+-ATPase buffer consisted of 30 mM MOPS-NaOH, pH 7, 40 mM NaCl, 4 mM MgCl2, and 20 mM KCl. The concentration of protein was adjusted to obtain a signal of the optical density at 860 nm (OD860) of between 0.5 and 1.0 in the untreated samples (for all Pma1 batches, ∼1 to 2 μg/well; for SERCA and Na^+,K^+-ATPase, ∼0.1 to 0.2 μg/well). BM2 ([…]-NH2, D-form amino acids) was custom synthesized by Peptide 2.0 (Chantilly, VA).

The subject of assay [3] is S. cerevisiae cells. The assay is described as follows: Intracellular ATP (iATP), S. cerevisiae. The class given is cell-based, Saccharomyces cerevisiae. Conditions: for Effects on iATP levels, in words: S. cerevisiae and C. albicans (Fig. 5A, B), compared to compounds 14, 19 and BM2. The method, then:
(§1) S. cerevisiae and C. albicans cells were grown and washed as described above for the membrane potential and integrity assay and resuspended in SG medium (0.7% yeast nitrogen base without amino acids [BD], 50 mM succinic acid adjusted to pH 7 with Trizma base) to OD600 of 0.2 and 0.1, respectively. One hundred microliters of an S. cerevisiae or C. albicans cell suspension and 1 μl compound in DMSO were incubated for 30 min. Twenty-five microliters of the suspension was then transferred to a black 96-well plate containing 25 μl BacTiter-Glo reagent (Promega, Madison, WI) and incubated for 15 min in the dark. The luminescence was read on SpectraMax X5 (Molecular Devices, Sunnyvale, CA) plate reader with a 10 s of shaking and a 0.5 s integration time. Standard curves at 10, 100, and 1,000 nM ATP were performed with every experiment.

Assay [4] relates to S. cerevisiae. The assay is described as follows: Medium acidification assay, S. cerevisiae. The class given is cell-based, Saccharomyces cerevisiae. To be noted: 50% inhibition of medium acidification, 12 min, n = 2 to 3. The protocol: (§2) Frozen stocks of C. albicans and S. cerevisiae were transferred to YPD agar plates and incubated overnight at 34°C. On the next day, the cells were suspended and washed twice in 50 mM KCl, pH 6.7, after pelleting of the cells by centrifugation at 3,000 × g for 5 min. The cells were then starved overnight at 4°C in the KCl solution. […] The pH drop was then monitored by determination of the fluorescent signal with excitation at 485 nm and emission at 538 nm on a Fluoroskan Ascent plate reader (Thermo Fisher Scientific) for 12 min. The rate of medium acidification was calculated on the basis of the slope of the drop in fluorescence.

For assay [5], the system named is C. albicans. Nature of the assay: Medium acidification assay, C. albicans. It counts as cell-based, Candida albicans. The method, then:
as §2

Assay [6] has as its target Ca^2+-ATPase (SERCA1a) (Oryctolagus cuniculus, UniProt P04191). Nature of the assay: ATP hydrolysis assay, SERCA. The class given is biochemical, rabbit. To be noted: Table 1.
In assay [7] the test system is C. albicans cells. The assay is described as follows: Intracellular ATP (iATP), C. albicans. It counts as cell-based, Candida albicans. Conditions: for EC50: Candida albicans, 0.5 h, 30 min, dose response (Fig. 5C), read-out: EC50 of the increase in iATP levels, C. albicans; for Maximum iATP level (per well), C. albicans: highest concentrations of inhibitors tested (Fig. 5C). The method, then: as §1

The mark [8] stands for this setting: Table 2, pH 7, n = 2, read-out: IC50 for ATP hydrolysis, C. albicans Pma1.
Where [9] appears, read: read-out: IC50 for the Pma1 enzyme from C. albicans.
The mark [10] stands for this setting: Saccharomyces cerevisiae, 0.2 h.
[11] abbreviates: Candida albicans, 0.2 h, 50% inhibition of medium acidification, 12 min, n = 2 to 3, read-out: IC50 for acidification, C. albicans.
The mark [12] stands for this setting: ATP hydrolysis at pH 7.4 (compounds marked b).

T1 sequence (P28877 whole entry): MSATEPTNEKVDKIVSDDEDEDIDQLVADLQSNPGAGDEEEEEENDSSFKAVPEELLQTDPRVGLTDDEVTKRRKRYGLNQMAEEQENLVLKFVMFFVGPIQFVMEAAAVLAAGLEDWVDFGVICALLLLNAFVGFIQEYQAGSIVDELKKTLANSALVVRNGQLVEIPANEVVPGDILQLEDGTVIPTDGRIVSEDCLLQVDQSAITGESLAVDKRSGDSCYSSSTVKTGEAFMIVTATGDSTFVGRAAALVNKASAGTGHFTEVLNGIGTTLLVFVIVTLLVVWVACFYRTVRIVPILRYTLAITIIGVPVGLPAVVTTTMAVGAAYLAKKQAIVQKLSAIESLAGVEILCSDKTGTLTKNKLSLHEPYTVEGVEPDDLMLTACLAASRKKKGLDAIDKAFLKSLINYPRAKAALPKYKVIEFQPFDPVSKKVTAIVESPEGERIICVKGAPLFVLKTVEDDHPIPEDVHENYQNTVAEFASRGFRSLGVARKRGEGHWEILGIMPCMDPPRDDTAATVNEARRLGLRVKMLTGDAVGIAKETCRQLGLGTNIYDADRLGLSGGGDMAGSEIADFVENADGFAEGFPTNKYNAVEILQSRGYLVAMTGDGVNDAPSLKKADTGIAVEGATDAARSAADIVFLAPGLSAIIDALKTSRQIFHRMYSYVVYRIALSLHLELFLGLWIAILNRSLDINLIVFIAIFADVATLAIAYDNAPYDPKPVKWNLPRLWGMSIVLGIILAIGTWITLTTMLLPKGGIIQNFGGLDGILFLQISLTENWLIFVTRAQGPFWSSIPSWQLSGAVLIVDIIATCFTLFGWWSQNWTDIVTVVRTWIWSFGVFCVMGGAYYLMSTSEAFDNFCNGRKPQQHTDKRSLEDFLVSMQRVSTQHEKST
Sequence of Ca^2+-ATPase (SERCA1a) (P04191 1-994 isoform P04191-2): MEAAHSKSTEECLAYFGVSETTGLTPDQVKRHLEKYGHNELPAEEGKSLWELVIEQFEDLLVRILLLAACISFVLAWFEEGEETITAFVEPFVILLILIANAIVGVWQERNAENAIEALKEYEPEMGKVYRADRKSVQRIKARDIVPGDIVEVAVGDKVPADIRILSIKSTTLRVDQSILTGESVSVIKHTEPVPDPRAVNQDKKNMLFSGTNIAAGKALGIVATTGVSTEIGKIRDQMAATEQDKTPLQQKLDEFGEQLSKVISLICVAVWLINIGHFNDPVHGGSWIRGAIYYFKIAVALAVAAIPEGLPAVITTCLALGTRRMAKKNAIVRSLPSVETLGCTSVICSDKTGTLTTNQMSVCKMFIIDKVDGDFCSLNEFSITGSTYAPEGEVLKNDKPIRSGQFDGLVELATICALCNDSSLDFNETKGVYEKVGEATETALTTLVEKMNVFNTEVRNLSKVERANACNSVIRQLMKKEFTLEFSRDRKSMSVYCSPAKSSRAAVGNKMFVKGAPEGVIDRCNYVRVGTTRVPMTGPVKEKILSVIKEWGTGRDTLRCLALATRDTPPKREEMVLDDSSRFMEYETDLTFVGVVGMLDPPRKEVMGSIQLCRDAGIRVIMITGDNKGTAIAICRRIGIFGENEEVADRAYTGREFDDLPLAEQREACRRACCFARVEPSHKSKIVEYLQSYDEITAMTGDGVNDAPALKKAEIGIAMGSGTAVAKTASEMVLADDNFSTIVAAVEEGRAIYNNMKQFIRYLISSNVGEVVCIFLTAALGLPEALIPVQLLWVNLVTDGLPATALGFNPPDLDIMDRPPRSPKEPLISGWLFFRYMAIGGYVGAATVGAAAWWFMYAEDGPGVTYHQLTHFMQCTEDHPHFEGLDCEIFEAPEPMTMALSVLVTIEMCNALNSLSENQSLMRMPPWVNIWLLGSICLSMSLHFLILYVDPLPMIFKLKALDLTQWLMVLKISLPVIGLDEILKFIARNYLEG

The MIC is the lowest concentration found to suppress growth. With `O=C1/C(=C/c2ccc(-c3cc(Cl)ccc3Cl)o2)C=C(c2ccccc2)N1c1ccccc1O` [Compound 1], the MIC in assay [1] is above 150 µM.
A word on the IC50: it is the point on the concentration scale where inhibition reaches its midpoint. In the case of `[O]=[V]([O-])([O-])[O-]` [Vanadate, reference compound], the 50% inhibitory concentration (IC50) in assay [2] (setting [8]) is 0.23 ± 0.05 µM; in assay [4] it was above 40 µM; in assay [5] (50% inhibition of medium acidification, 12 min, n = 2 to 3, read-out: IC50 for acidification, C. albicans), above 40 µM. Also, the “Effects on iATP levels, in words” value in assay [3] was “minimal effects”.
Take `COc1ccc(Cn2c(SCc3cc(C)ccc3C)nc3cc(OC)c(OC)cc3c2=N)cc1` [Compound 12]: the IC50 in assay [6] (ATP hydrolysis at pH 7) is above 105 µM. Further, the MIC in assay [1] was above 150 µM.
As for `COc1cccc(Nc2nc(Cl)nc(Nc3cccc(OC)c3)n2)c1` [Compound 9], the MIC in assay [1] was above 150 µM.
In general, EC50 refers to the midpoint of the concentration-response curve. In the case of `CCN(CC)CCCNc1nc(SC)nc2c1sc1nc(-c3ccccc3)c3c(c12)CCC3` [Compound 19], the half-inhibitory concentration (IC50) in assay [2] (setting [8]) amounted to 8.7 ± 0.5 µM; in assay [2] (setting [9]), 9 µM; in assay [4] (setting [10]), 2.3 ± 0.1 µM; in assay [5] (setting [11]), 2.3 ± 0.5 µM. In assay [7], the EC50 amounted to 7 µM. Also, in assay [7], the “Maximum iATP level (per well), C. albicans” value is given as “about 500 nM”.
For the compound `N=C(N)NCCC[C@@H](N)C(=O)N[C@H](CCCNC(=N)N)C(=O)N[C@H](CCCNC(=N)N)C(=O)N[C@H](Cc1ccccc1)C(=O)N[C@H](Cc1c[nH]c2ccccc12)C(=O)N[C@H](Cc1c[nH]c2ccccc12)C(=O)N[C@H](Cc1ccccc1)C(=O)N[C@H](CCCNC(=N)N)C(=O)N[C@H](CCCNC(=N)N)C(=O)N[C@H](CCCNC(=N)N)C(N)=O` [BM2, reference compound] (HELM PEPTIDE1{[dR].[dR].[dR].[dF].[dW].[dW].[dF].[dR].[dR].[dR].[am]}$$$$V2.0), the concentration for half-maximal inhibition (IC50) in assay [2] (setting [8]) stood at 0.9 ± 0.2 µM; in assay [2] (setting [9]) it was 0.9 µM.
In the case of `Oc1cccc(Nc2nc(-c3ccc(Cl)c(Cl)c3)cs2)c1` [Compound 7], the concentration for half-maximal inhibition (IC50) in assay [6] (setting [12]) was 3.8 ± 0.6 µM.
With `CN(C)CCCNc1ncnc2c1sc1nc(N3CCCCC3)c3c(c12)CCCC3` [Compound 16], the half-inhibitory concentration (IC50) in assay [2] (setting [8]) was determined as 9.5 ± 1 µM; in assay [4] (setting [10]), 7.6 ± 3.4 µM; in assay [5] (setting [11]), 3.4 ± 1.6 µM.
Consider `COc1ccc(-c2cc(C(=O)Nc3ccc4c(c3)OCCO4)c3ccccc3n2)c(OC)c1` [Compound 8], for which the MIC in assay [1] was above 38 µM.
As to `COc1ccc(-c2cc(C(=O)Nc3ccc(C(C)C)cc3)c3ccccc3n2)c(OC)c1` [Compound 3], in assay [1], the MIC was above 150 µM.
For `CCCCOc1ccc(C2C(C#N)=C(N)Oc3cc(O)ccc32)cc1` (stereo not shown) [Compound 11], the MIC in assay [1] was above 150 µM.
For the compound `CC1CCCCN1CC(O)Cn1c(-c2ccccc2)c(-c2ccccc2)c2ccc3ccccc3c21` (stereo not shown) [Compound 4], in assay [1], the MIC was above 38 µM.
Turning to `CCCCc1nc2sc3c(NCCCN(C)C)nc(SC)nc3c2c2c1CCC2` [Compound 15], the IC50 amounted to 6.3 ± 0.5 µM in assay [2] (setting [8]), 1.7 ± 0.1 µM in assay [4] (setting [10]) and 1.6 µM in assay [5] (setting [11]).
For the compound `Cc1c(-c2ccccc2)[o+]c2ccccc2c1C#Cc1ccccc1` [Compound 6], in assay [6] (setting [12]), the IC50 turned out to be 3.4 ± 0.6 µM. In assay [1], the minimal inhibitory concentration (MIC) was above 150 µM.
In the case of `O=c1c2ccccc2[se]n1-c1ccccc1` [Ebselen, reference compound], the half-inhibitory concentration (IC50) in assay [2] (IC50 for ATP hydrolysis, C. albicans Pma1, Table 2, pH 7, n = 2) turned out to be 0.51 ± 0.04 µM; in assay [4] (setting [10]), 7.6 µM; in assay [5] (setting [11]) it was 9.4 ± 2.1 µM; in assay [5] (Candida albicans, read-out: IC50 for C. albicans, extracellular acidification), 11 µM.
For `CCc1nc2sc3c(NCCCN(C)C)ncnc3c2c2c1CCCC2` [Compound 17], the IC50 was 151 ± 6.2 µM in assay [2] (setting [8]), 39.6 ± 10.3 µM in assay [4] (setting [10]) and 19.1 ± 1.7 µM in assay [5] (setting [11]). Further, the “Effects on iATP levels, in words” value in assay [3] is “minimal effects”.
Regarding `CCCCc1nc2sc3c(NCCCN(C)C)ncnc3c2c2c1CCCC2` [Compound 14], the IC50 in assay [2] (setting [8]) was 17 ± 0.9 µM; in assay [2] (setting [9]) it was 17 µM; in assay [4] (setting [10]), 11.2 ± 2.7 µM; in assay [5] (setting [11]) it was 6.6 ± 2.5 µM. Further, in assay [7] (30 min of treatment), the “Increase in iATP levels compared to untreated control, C. albicans” value was 1,500%. For the same compound, the EC50 in assay [7] was determined as 13 µM. In addition, the “Maximum iATP level (per well), C. albicans” value in assay [7] is listed as “about 500 nM”. Besides, the “iATP levels in the presence of oligomycin, S. cerevisiae” value in assay [3] (30 min, oligomycin A at 40 μM) was “comparable to those for control cells”. Also, the “Increase in iATP levels compared to untreated control, S. cerevisiae” value in assay [3] (30 min of treatment, species of the BM2 value not given) is recorded as 200%.
Turning to `CN(C)CCCNc1ncnc2c1sc1nc(-c3ccccc3)c3c(c12)CCC3` [Compound 18], the values for the IC50 in assay [2] (setting [8]), in assay [4] (setting [10]) and in assay [5] (setting [11]) were 22.9 ± 2 µM, 12.5 ± 1.1 µM and 8.8 ± 0.4 µM, respectively.
